Consider 17 molecules from PubChem BioAssay AID192 (DTP/NCI, 2004).

Values joined by “and” are separate entries in the source; they are usually repeats but may differ in a detail not shown here. Equal values may be shown once. Toxic doses and inconclusive results are not listed.

For this test, the system named is BDF1 mice, B16 melanoma ip, median survival T/C. Kind of test: NCI In Vivo Anticancer Drug Screen. Data for tumor model B16 Melanoma (intraperitoneal) in B6D2F1 (BDF1) mice. Conditions: endpoint: median survival time, schedule: Q01DX009 (ip), higher = longer survival. In short, it runs like this: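 Tumor-bearing mice received test compound or vehicle. Survival or tumor size was then measured in both groups. The treated-group figure was divided by the control-group figure.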

Where [1] appears, read: dose: 12.5 mg/kg/injection, vehicle: saline.
[2] abbreviates: dose: 25.0 mg/kg/injection, vehicle: saline.
Setting [3] is: dose: 50.0 mg/kg/injection, vehicle: saline.
The mark [4] stands for this setting: dose: 100.0 mg/kg/injection, vehicle: Klucel (hydroxypropylcellulose) (HPC).
The mark [5] stands for this setting: dose: 200.0 mg/kg/injection, vehicle: Klucel (hydroxypropylcellulose) (HPC).
[6] abbreviates: dose: 400.0 mg/kg/injection, vehicle: Klucel (hydroxypropylcellulose) (HPC).
Where [7] appears, read: dose: 2.5 mg/kg/injection, vehicle: saline.
Setting [8] is: dose: 5.0 mg/kg/injection, vehicle: saline.
Setting [9] is: dose: 50.0 mg/kg/injection, vehicle: Klucel (hydroxypropylcellulose) (HPC).
[10] abbreviates: dose: 4.0 mg/kg/injection, vehicle: saline.
[11] abbreviates: dose: 8.0 mg/kg/injection, vehicle: saline.
Where [12] appears, read: dose: 0.5 mg/kg/injection, vehicle: saline.
[13] abbreviates: dose: 1.0 mg/kg/injection, vehicle: saline.

As to `CC(C)OCCCN=C(N)N`, the T/C reads like this: under setting [1], 105 % of control; under setting [2], 106 % of control; under setting [3], 110 % of control.
For the molecule `Cc1ccc([N+](=O)[O-])c(C)c1`, the T/C reads like this: under setting [4], 94 % of control; under setting [5], 102 % of control; under setting [6], 94 % of control.
`COc1ccc(/C=C/c2ccc3ccccc3[n+]2C)c(OC)c1OC`: the T/C is 104 % of control under setting [7] and 113 % of control under setting [8].
As for `Cc1cccc(C)c1NC(=O)Nc1cccc2ccccc12`, the T/C is 117 % of control (dose: 100.0 mg/kg/injection, vehicle: gum acacia); 109 % of control (dose: 200.0 mg/kg/injection, vehicle: gum acacia); 100 % of control (dose: 400.0 mg/kg/injection, vehicle: gum acacia).
Regarding `NC(=S)n1cccn1`, the T/C runs as follows: (dose: 25.0 mg/kg/injection, vehicle: saline with Tween-80) 96 % of control; (dose: 50.0 mg/kg/injection, vehicle: saline with Tween-80) 114 % of control; (dose: 100.0 mg/kg/injection, vehicle: saline with Tween-80) 94 % of control.
Consider `O=C(NC1CCCCC1)Oc1ccccc1-c1ccccc1`, for which the T/C by setting is: under setting [4], 88 % of control; under setting [6], 100 % of control.
`COc1cc2c(cc1OC)C1CNC(=O)C1C(c1ccccc1)C2` (centres undefined): the T/C reads like this: (dose: 2.5 mg/kg/injection, vehicle: Klucel (hydroxypropylcellulose) (HPC)) 91 % of control; (dose: 3.75 mg/kg/injection, vehicle: Klucel (hydroxypropylcellulose) (HPC)) 91 % of control; (dose: 5.0 mg/kg/injection, vehicle: Klucel (hydroxypropylcellulose) (HPC)) 98 % of control; (dose: 7.5 mg/kg/injection, vehicle: Klucel (hydroxypropylcellulose) (HPC)) 97 % of control; (dose: 10.0 mg/kg/injection, vehicle: Klucel (hydroxypropylcellulose) (HPC)) 94 % of control; (dose: 15.0 mg/kg/injection, vehicle: Klucel (hydroxypropylcellulose) (HPC)) 92 % of control.
Take `N=Cc1c(O)[nH]c(=O)[nH]c1=O`: the T/C is 87 % of control (dose: 150.0 mg/kg/injection, vehicle: Klucel (hydroxypropylcellulose) (HPC)) and 95 % of control (dose: 300.0 mg/kg/injection, vehicle: Klucel (hydroxypropylcellulose) (HPC)).
Consider `CCOC(=O)C1CC(c2ccccc2)=NN1c1ccccc1` (centres undefined), for which the T/C was 97 % of control under setting [9], 104 % of control under setting [4], 100 % of control under setting [5] and 97 % of control under setting [6].
`C/C(=C\C(=O)Nc1ncn[nH]1)Nc1ncn[nH]1`: the T/C is 106 % of control under setting [9], 102 % of control under setting [4], 90 % of control under setting [5] and 101 % of control under setting [6].
Take `O=C(N/N=C\c1cc(Br)cc(Br)c1O)N/N=C/c1cc(Br)cc(Br)c1O`: the T/C (dose: 6.25 mg/kg/injection, vehicle: saline with Tween-80) is 108 % of control and 120 % of control; the T/C (dose: 6.25 mg/kg/injection, vehicle: sodium bicarbonate) is 96 % of control; the T/C (dose: 12.5 mg/kg/injection, vehicle: saline with Tween-80) is 104 % of control; the T/C (dose: 12.5 mg/kg/injection, vehicle: sodium bicarbonate) is 107 % of control; the T/C (dose: 25.0 mg/kg/injection, vehicle: sodium bicarbonate) is 107 % of control; the T/C (dose: 50.0 mg/kg/injection, vehicle: sodium bicarbonate) was 107 % of control. Further, the T/C (dose: 100.0 mg/kg/injection, vehicle: sodium bicarbonate) was 118 % of control and the T/C (dose: 200.0 mg/kg/injection, vehicle: sodium bicarbonate) is 122 % of control.
For the molecule `CN(CO)c1nc(N(C)CO)nc(N(C)CO)n1`, the T/C was 111 % of control (dose: 6.25 mg/kg/injection, vehicle: saline); 112 % of control and 118 % of control under setting [1]; 110 % of control and 124 % of control under setting [2]; 120 % of control under setting [3].
Regarding `O=C(O)CP(=O)(O)O`, the T/C under setting [10] was 109 % of control; the T/C under setting [11] was 104 % of control; the T/C (dose: 16.0 mg/kg/injection, vehicle: saline) is 102 % of control; the T/C (dose: 32.0 mg/kg/injection, vehicle: saline) is 101 % of control; the T/C under setting [3] is 103 % of control; the T/C (dose: 64.0 mg/kg/injection, vehicle: saline) was 102 % of control. The T/C runs as follows: (dose: 100.0 mg/kg/injection, vehicle: saline) 120 % of control; (dose: 200.0 mg/kg/injection, vehicle: saline) 154 % of control; (dose: 400.0 mg/kg/injection, vehicle: saline) 194 % of control; (dose: 800.0 mg/kg/injection, vehicle: saline) 211 % of control.
Take `Nc1ccc2nc3ccc(=O)cc-3n(-c3ccccc3)c2c1`: the T/C reads like this: under setting [12], 109 % of control; under setting [13], 104 % of control; under setting [7], 111 % of control; under setting [8], 104 % of control; (dose: 10.0 mg/kg/injection, vehicle: saline) 104 % of control.
As for `Cc1c(N)nc(C(CC(N)=O)NCC(N)C(N)=O)nc1C(=O)NC(C(=O)NC(C)C(O)C(C)C(=O)NC(C(=O)NCCc1nc(-c2nc(C(=O)NCCCNC(C)c3ccccc3)cs2)cs1)C(C)O)C(OC1OC(CO)C(O)C(O)C1OC1OC(CO)C(O)C(OC(N)=O)C1O)c1cnc[nH]1` (centres undefined), the T/C runs as follows: (dose: 0.25 mg/kg/injection, vehicle: saline) 105 % of control; under setting [12], 102 % of control; under setting [13], 106 % of control; (dose: 2.0 mg/kg/injection, vehicle: saline) 110 % of control; under setting [10], 108 % of control; under setting [11], 111 % of control.
As for `CC/C(=C(\c1ccccc1)c1ccc(OCCN(C)C)cc1)c1ccccc1`, the T/C was 97 % of control (dose: 25.0 mg/kg/injection, vehicle: suspension in saline); 93 % of control (dose: 50.0 mg/kg/injection, vehicle: suspension in saline); 91 % of control (dose: 100.0 mg/kg/injection, vehicle: suspension in saline); 86 % of control (dose: 200.0 mg/kg/injection, vehicle: suspension in saline).
Turning to `COc1ccccc1N1CCCSC1=Nc1ccccc1`, the T/C was 98 % of control (dose: 12.5 mg/kg/injection, vehicle: Klucel (hydroxypropylcellulose) (HPC)); 95 % of control (dose: 25.0 mg/kg/injection, vehicle: Klucel (hydroxypropylcellulose) (HPC)); 95 % of control under setting [9]; 100 % of control under setting [4]; 100 % of control under setting [5].
